Here are results for 2 compounds from US9701603B2, “Strepsesquitriol, preparation method thereof, and application thereof” (SOUTH CHINA SEA INSTITUTE OF OCEANOLOGY, CHINESE ACADEMY OF …, priority 2013, dated 2017).

In one series the test system is RAW264.7 cells. Kind of series: Cytotoxic activity to RAW264.7 cells. It counts as cell-based. Conditions: concentration 100 μM.
The test system of another series is LPS-induced TNFα. Nature of the series: Inhibition of the formation of LPS-induced TNFα in RAW264.7 macrophages. It counts as cell-based. From the text:
As for determination of inhibitory activity of Strepsesquitriol on the formation of lipopolysaccharide (LPS)-induced TNFα in RAW264.7 macrophages, please refer to the references (Fan, S. Y.; Zeng, H. W.; Pei, Y. H.; Li. L.; Ye, J.; Pan, Y. X.; Zhang, J. G.; Yuan, X.; Zhang, W. D. The anti-inflammatory activities of an extract and compounds isolated from Platycladus orientalis (Linnaeus) Franco in vitro and ex vivo J Ethnopharmacol 2012, 141, 647-652) ENREF 3.

Broadly, the inhibition is the drop in the measured response relative to a control, in per cent. For the compound `C[C@H]1C[C@@H](O)[C@]23C[C@H](CC[C@]12O)C(C)(C)[C@]3(C)O` [Strepsesquitriol A, (1R,2R,4S,5S,8S,10S)-4,9,9,10-tetramethyl-2,5,10-trihydroxyltricyclo[6.2.1.0^1,5]undecane], the cytotoxic activity entry with RAW264.7 cells is given as “no cytotoxic activity”. Besides, the inhibition at 3.6 µM in the series with LPS-induced TNFα (Mus musculus, concentration 3.6 μM, read-out: Inhibition rate (%)) was determined as 3.4 ± 2.8%. The inhibition at 11 µM in the series with LPS-induced TNFα (Mus musculus, concentration 11.0 μM, read-out: Inhibition rate (%)) stood at 8 ± 1.6%. Further, in the series with LPS-induced TNFα (Mus musculus, concentration 33.0 μM, read-out: Inhibition rate (%)), the inhibition at 33 µM is 30.6 ± 1.4%. Besides, the inhibition at 100 µM in the series with LPS-induced TNFα (Mus musculus, concentration 100 μM, read-out: Inhibition rate (%)) is 35.4%.

In the case of `Cc1ccc(S(=O)(=O)N[C@@H](Cc2ccccc2)C(=O)CCl)cc1` [TPCK, N-p-tosyl-1-phenylalanine chloromethyl ketone, reference compound], the “Inhibition rate (%)” value in the series on LPS-induced TNFα (concentration 100 μM) stood at 60.6%.
